Key:
Assay type in all cases: cell-based, human
[1] = test system: NCI-H249 SCLC cells; assay: Cell growth of NCI-H249 SCLC cells (MTT assay); details: for cell growth after compound treatment: NCI-H249 SCLC cells, 5 days, FIG. 3b
Experimental: (§1) MTT assays were performed as described (Sriuranpong (2002), supra).

[2] = test system: NCI-H157 NSCLC cells; assay: Cell growth of NCI-H157 NSCLC cells (MTT assay); details: 5 days, FIG. 3c
Experimental: as §1

[3] = test system: BMP4, nestin and ASH-1 transcripts; assay: RT-PCR analysis of transcripts in NCI-H249 SCLC cells; details: 48 h, FIG. 3h
Experimental: Total cellular RNA was treated with DNAse, reverse transcribed, and amplified for 31 cycles at an annealing temperature of 55° C. Primers used were: […]

[4] = test system: NCI-H249 SCLC cells; assay: Cell cycle analysis in NCI-H249 cells; details: unsynchronized NCI-H249 SCLC cells; 5 μM; 72 h; FIG. 3e
[5] = test system: Ptch mRNA; assay: Ptch mRNA expression by northern blot analysis; details: NCI-H249 SCLC cells, FIG. 3g
[6] = test system: NCI-H249 SCLC cells; assay: Soft agar clonogenicity of NCI-H249 SCLC cells; details: FIG. 4a, b
[7] = test system: NCI-H249 SCLC cells; assay: Cleaved PARP expression (apoptosis) by immunoblot; details: 5 μM, 72 h, FIG. 3f
Experimental: Whole-cell lysates were sonicated in 2% SDS/50 mM TrisHCl, pH 8. […] Anti-cleaved PARP was obtained from Promega.

Structure (SMILES)	cell growth after compound treatment [1]	cell growth after compound treatment [2]	BMP4 expression [3]	human ASH-1 expression [3]	nestin expression [3]	growth inhibition by cyclopamine in cells stably expressing Flag-tagged GLI-1 ([1]; NCI-H249 SCLC cells stably transfected with Flag-Gli1, MTT, FIG. 3d)	growth inhibition by cyclopamine in cells expressing GLI-1 mutant lacking the zinc finger DNA-binding domain ([1]; NCI-H249 SCLC cells stably transfected with Flag-Gli1ZFD, MTT, FIG. 3d)	cell cycle effect [4]	Ptch mRNA expression [5]	soft agar clonogenicity effect in cells overexpressing GLI-1 ([6]; NCI-H249 SCLC cells stably transfected with Flag-Gli1, cyclopamine 5 μM)	soft agar clonogenicity ([6]; NCI-H249 SCLC cells)	apoptosis (cleaved PARP) [7]
CC1=C2C[C@H]3[C@@H](CC=C4CC(=O)CC[C@@]43C)[C@@H]2CC[C@]12O[C@@H]1C[C@H](C)CN(CCNC(=O)CCCCCNC(=O)CCc3ccccc3)[C@H]1[C@H]2C [KAAD-cyclopamine]	significant growth inhibition	None of KAAD-cyclopamine, cyclopamine or tomatidine was able to affect growth	–	–	–	–	–	–	–	–	–	–
CC1=C2C[C@H]3[C@@H](CC=C4C[C@@H](O)CC[C@@]43C)[C@@H]2CC[C@]12O[C@@H]1C[C@H](C)CN[C@H]1[C@H]2C [cyclopamine]	–	–	inhibited expression	inhibited expression	inhibited expression	protected NCI-H249 SCLC cells from growth inhibition	had no effect	arrest of the cell cycle in Go/G1	downregulation	reversed	reduced soft agar clonogenicity	increase in cleaved PARP
C[C@H]1CC[C@]2(NC1)O[C@H]1C[C@H]3[C@@H]4CC[C@H]5C[C@@H](O)CC[C@]5(C)[C@H]4CC[C@]3(C)[C@H]1[C@@H]2C [tomatidine]	no effect	None of KAAD-cyclopamine, cyclopamine or tomatidine was able to affect growth	–	–	–	–	–	–	–	–	–	–

— US20080057071A1, “Use Of Hedgehog Pathway Inhibitors In Small-Cell Lung Cancer” (priority 2003, published 2008)
